According to US8313914B2, “Compositions and methods for modulation of cell migration” (Angstrom Pharmaceuticals, Inc., priority 2009, dated 2012):
“Also recorded” adds a separate entry of the source. No end group written: not given here.

Legend:
CD44 [1] = target: T1, CD44 (Homo sapiens, UniProt P16070); experiment: Immunoprecipitation of Å6Cbio-crosslinked SKOV3 polypeptides with anti-CD44, HRP-SA blotting; type: binding; conditions: SKOV3 cells, 100 μM Å6Cbiotin, BS3 crosslinking, anti-CD44 DF1485
T1 construct: endogenous in cells; host or cells: SKOV3
Procedure: In FIGS. 1 and 2 SKOV3 cells were incubated with or without 100 μM Å6Cbiotin (Å6CbioXL and ConXL, respectively) for 30 min at 4° C. The cells were then crosslinked with 5 mM bis(sulfosuccinimidyl) suberate (Sulfo-DSS or BS^3) for 30 min at 4° C. and Triton X-100 lysates generated. The lysates were pre-cleared by incubating with Protein A-agarose for 2 hr at room temperature. Aliquots representing 100 μg of the cleared lysates were then incubated overnight at room temperature with 20 μL of Protein A-agarose plus 2 μg of anti-Tenascin R (TnR; E-18, Santa Cruz Biotech.), anti-Tenascin C (TnC; 300-3, Santa Cruz Biotech.), anti-CD44 (DF1485, Santa Cruz Biotech.), anti-Plexin-A1 (P1 A1; H-60, Santa Cruz Biotech.) or murine IgG1 (Sigma Chem. Co.). After washing 5 times with lysis buffer, the immunoprecipitated polypeptides were eluted from the Protein A-agarose by boiling in SDS-PAGE sample buffer. The eluted material and 2 μg aliquots of the starting material were then subjected to SDS-PAGE, transfer to PVDF membranes and blotting with chemiluminescent horseradish peroxidase (HRP)-conjugated streptavidin (HRP-SA).
In FIG. 3 SKOV3 cells were incubated with or without 100 μM Å6Cbiotin (Å6CbioXL and control, respectively) for 30 minutes at 4° C. The cells were then crosslinked with 5 mM BS3 for 30 min at 4° C. […]

CD44 on SKOV3 cells [2] = target: T2, CD44 on SKOV3 cells (Homo sapiens, UniProt P16070); experiment: FACs analysis of anti-CD44 (DF1485) binding to SKOV3 cells in the presence of Å6; type: cell-based; conditions: pre-incubation with Å6 on ice 10 or 30 min, FACS MnI
T2 construct: endogenous in cells; host or cells: SKOV3
Procedure: In FIG. 4 SKOV3 cells were detached from their culture flasks by brief trypsinization, washed twice with DPBS and incubated on ice with the indicated concentrations of Å6 for 10 min (exp. 1) or 30 min (exp. 2). Anti-CD44 (DF1485; Santa Cruz Biotech.) or its isotype control were then added to final concentrations of 1 μg/ml (exp. 1) or 1 and 0.5 μg/ml (exp. 2) and the cells incubated for 1 hr on ice. The cells were washed once and incubated with FITC-conjugated donkey anti-mouse IgG (H+L) for 30 minutes on ice and then subjected to FACS analysis with a Beckman Coulter Epics XL-MCL cytofluorimeter. Data analysis was performed using the Coulter Epics software. Note: Data are presented as mean fluorescence intensities (MnI) obtained with the MnI of the negative control in each experiment adjusted to <0.5 during data collection. […] Similar CD44 expression in ovarian cancer lines using different anti-CD44 antibodies is assessed in FIG. 5, for which the MnI values are summarized in FIG. 6.

A2780 cells [3] = experiment: Boyden chamber chemotaxis of A2780 cells; type: cell-based; conditions: 10 ng/ml VEGF in NIH3T3-conditioned media, overnight
Procedure: (§1) A2780 (FIG. 10a) and SKOV3 (FIG. 10b) cells were incubated with the indicated concentrations of Å6 peptide for 30 min at 37° C. Aliquots representing 6,000 cells were placed on quadruplicate, CnI-coated filters (8 μm pores) in Boyden chambers and the cells allowed to migrate overnight in response to 10 ng/ml VEGF in NIH3T3-conditioned media containing the indicated concentrations of Å6. Upon completion of migration, the apical surfaces of the membranes were wiped clean and the migrating cells on the basal surface were stained with Geimsa stain and the cells present in representative fields of the membranes counted. Data represent the averages+/−standard deviations obtained from the replicate filters. […] This provides further confirmation that CD44 is the target for the Å6 peptide.

SKOV3 cells [4] = experiment: Boyden chamber migration of SKOV3 cells induced by NIH3T3-CM/VEGF; type: cell-based; conditions: for Effective concentration for cell migration inhibition, lower end / Effective concentration for cell migration inhibition, upper end: SKOV3 migration
Procedure: as §1
SKOV3 cells are harvested by trypsinization and washed once with RPMI-0.5% BSA. Next, the cells are re-suspended in RPMI+0.5% BSA@6E4/mL (6000 cells/100 μL). The peptide is pre-treated with 500 μL of cells added to 500 μL peptide NASAPPEE (SEQ ID NO: 3) (2× concentration, final conc, at 100, 10, 1, 0.1, 0.01, 0.001 uM) and the mixture incubated 30 minutes at 37° C., under 5% CO2. The Boyden chamber is assembled by: Placing in the bottom chambers: 220 μL of serum/BSA free DMEM or NIH3T3CM+10 ng/ml VEGF or NIH3T3CM+10 ng/ml VEGF+peptide. Place 8 μm filters on the top of the bottom chambers. The 8 μm filters are coated with 1 mg/ml collagen I at 4° C. overnight, washed with PBS twice, air dry before use. Add 200 μL of cells with or without peptide pretreatment to the top of Boyden chamber. Note that the peptide is in both top and bottom chambers. Cells migrate overnight at 37° C., under 5% CO2 in incubator. Next, Boyden chambers are disassembled the and filters collected. The cells on the filters after collection are treated with −20° C. methanol for 3 minutes at room temperature and stained with 30% Geimsa for 7 minutes at room temperature, and washed with water twice. The filters are mounted on slides, air dried and the cells counted.
Cell numbers were obtained by counting the cells in four fields of filters using a 40× objective. The cells migrating into the bottom chambers were also counted as follows: a) 200 μL fluid in the bottom chamber was transferred to a well of 96-well plate; b) The plate was centrifuged at 1200 rpm for 5 minutes; c) 180 μL of supernatant was removed; d) The cell pellet was resuspended with the remaining 20 μL fluid and the cells counted using a hemocytometer. […] This compares favorably to the Å6 peptide which is effective between 5 μM and 100 nM.

SKOV3 cells [5] = experiment: Adhesion of SKOV3 cells to hyaluronic acid; type: cell-based
Procedure: In FIG. 11 SKOV3 cells were cultured overnight with or without 10 μM Å6 or 100 ng/ml PMA. The cells were then detached, washed and loaded with 20 μg/ml CFDA-SE for 30 min at 37° C. After washing, the cells were resuspended in PBS containing 10% FCS and triplicate aliquots representing 100,000 cells incubated for 30 min at room temperature with no additions, 1 or 10 uM Å6 or with 20 ng/ml IM7, a blocking anti-CD44 rat monoclonal antibody. The cells were then placed into microtiter wells that had been coated with 50 μl, of 1 mg/mL HA overnight and blocked for 30 min with 10% FCS. The cells were allowed to adhere at room temperature for 30 minutes after which, the wells were decanted and washed 3 times. The fluorescence in each well was assessed (excit./emiss.: 460/536 nm) and the mean fluorescence values (+/standard deviation) of the triplicate determinations calculated. […] The control experiment with IM7 (graphs on far right) indicates inhibition of SKOV3 binding to HA in the presence of this anti-CD44, which indicates a role for CD44 in binding HA.

A2780 cells [6] = experiment: Adhesion of A2780 cells to hyaluronic acid; type: cell-based; conditions: immobilized HA; 1 or 10 μM Å6
Procedure: In FIG. 12 A2780 cells were cultured overnight with or without 10 μM Å6 or 100 ng/ml PMA. The cells were then detached, washed and loaded with 20 μg/ml CFDA-SE for 30 min at 37° C. After washing, the cells were resuspended in PBS containing 10% FCS and triplicate aliquots representing 100,000 cells incubated for 30 min at room temperature with no additions, 1 or 10 μM Å6 or with 20 ng/ml IM7, a blocking anti-CD44 rat monoclonal antibody. The cells were then placed into microtiter wells that had been coated with 50 ul of 1 mg/ml HA overnight and blocked for 30 min with 10% FCS. The cells were allowed to adhere at room temperature for 30 min after which, the wells were decanted and washed 3 times. The fluorescence in each well was assessed (excit./emiss.: 460/536 nm) and the mean fluorescence values (+/standard deviation) of the triplicate determinations calculated.

CD44 [7] = target: T1, CD44; experiment: Dimerization of CD44 in SKOV3 cells, anti-CD44 B-F24 immunoblot; type: cell-based; conditions: SKOV3 cultured 20 hr with 1 or 10 μM Å6, non-reducing
Procedure: In FIG. 13 SKOV3 cells were cultured for 20 hr with no additions, 1 or 10 μM Å6 or 100 ng/ml PMA. Triton X-100 lysates were generated and further solubilized in SDS-PAGE sample buffer under non-reducing conditions. Aliquots representing 7.5 μg of cellular protein were subjected to SDS-PAGE followed by immunoblot analysis with the anti-CD44 murine monoclonal B-F24. The presence of stained higher molecular weight bands can be indicative of CD44 dimers and/or oligomers.

CD44 on SKOV3 cells [8] = target: T2, CD44 on SKOV3 cells; experiment: FACs analysis of IM7 binding to SKOV3 cells in the presence of Å6; type: cell-based; conditions: IM7 1 μg/ml, 4° C.
Procedure: In FIGS. 14a and 14b SKOV3 cells were incubated with the indicated concentrations of Å6 for 30 min at 4° C. IM7 (1 μg/ml) was then added and allowed to bind for 30 min at 4° C., after which the cells were washed and incubated with FITC-donkey anti-rat IgG for 30 min at 4° C. The cells were washed once and then subjected to FACs analysis.

B16 melanoma cells = experiment: B16 melanoma lung metastasis model; type: in vivo, C57BL/6J mice; conditions: about 1×10^5 melanoma cells injected in the tail vein
Procedure: The B16 melanoma metastasis is well known in the art. A typical protocol for assessing the inhibitory effect of a compound on metastasis is described below. Such a protocol was followed to assess the effect of Å6 on metastasis.
Briefly, B16 melanoma cells can be cultured in RPMI-1640 with 10% fetal bovine serum at 37° C. in an atmosphere of 95% air and 5% CO2. C57BL/6J mice of six to eight weeks can be purchased from commercial suppliers. For the lung metastasis model, about 1×10^5 melanoma cells suspended in 100 μl saline were injected in the tail vein in the presence or absence of Å6. Administration of the Å6 peptide inhibited the lung metastasis by 50% or more.

CD44 [9] = target: T1, CD44; experiment: Anti-CD44 (DF1485) immunoblot analysis of Å6CbioXL polypeptides and Å6-BSA; type: binding; conditions: SKOV3 lysates
Procedure: In FIG. 7 30 μg aliquots of Å6CbioXL and control (ConXL) SKOV3 lysates, as well as 2 μg aliquots of Å6-crosslinked BSA (Å6-BSA) and BSA, were subjected to immunoblot analysis using the DF1485 anti-CD44 antibody (Santa Cruz Biotech). The DF1485 blots were stained with HRP-conjugated sheep anti-Mouse IgG; heavy and light chain specific (GE Health Sciences). The rabbit anti-Å6 blot was stained with HRP-conjugated donkey anti-rabbit IgG; heavy and light chain specific (Jackson Immunoresearch). Stained bands were visualized by the ECL-plus chemiluminescence reagent (GE Health Sciences) and exposure to Hyperfilm ECL film (GE). In panel 1, anti-CD44 produced bands in the Å6CbioXL (A lane) and control (C) lane. […] In addition, 2 μg aliquots of the Å6CbioXL and ConXL lysates were concurrently blotted with HRP-streptavidin to identify polypeptides labeled with Å6Cbio, and shown in panel 2. 2 μg of Å6-BSA and BSA were also blotted with Rb anti-Å6 to confirm the presence of Å6 on the Å6-BSA, as shown in the third panel of FIG. 7.

T1 sequence (P16070 21-742): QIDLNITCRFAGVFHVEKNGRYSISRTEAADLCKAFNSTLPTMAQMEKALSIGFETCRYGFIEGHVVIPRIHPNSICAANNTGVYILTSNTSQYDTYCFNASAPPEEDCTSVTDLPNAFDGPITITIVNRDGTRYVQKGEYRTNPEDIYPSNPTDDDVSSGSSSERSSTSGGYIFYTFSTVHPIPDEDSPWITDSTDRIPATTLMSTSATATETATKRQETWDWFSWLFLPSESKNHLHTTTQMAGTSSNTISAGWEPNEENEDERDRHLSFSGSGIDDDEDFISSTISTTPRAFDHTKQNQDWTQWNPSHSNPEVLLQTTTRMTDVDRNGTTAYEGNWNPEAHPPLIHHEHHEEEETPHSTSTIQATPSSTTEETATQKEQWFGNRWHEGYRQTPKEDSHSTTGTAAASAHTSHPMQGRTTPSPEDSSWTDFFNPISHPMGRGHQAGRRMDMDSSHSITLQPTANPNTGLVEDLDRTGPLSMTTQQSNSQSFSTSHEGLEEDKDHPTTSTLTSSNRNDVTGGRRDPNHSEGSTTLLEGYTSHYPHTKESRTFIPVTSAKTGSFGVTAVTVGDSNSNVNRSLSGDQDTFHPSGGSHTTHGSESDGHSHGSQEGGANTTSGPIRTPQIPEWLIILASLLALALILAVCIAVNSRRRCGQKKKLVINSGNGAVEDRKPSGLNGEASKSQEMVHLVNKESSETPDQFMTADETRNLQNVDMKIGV
T2 sequence (P16070 21-742): as above

| Substance | Target identified by immunoprecipitation of crosslinked biotinylated peptide (CD44 [1]) | Effect on binding of DF1485 anti-CD44 to SKOV3 cells (CD44 on SKOV3 cells [2]) | Effect on migration of A2780 cells (A2780 cells [3]) | Effect on migration of SKOV3 cells (SKOV3 cells [4]; 10 ng/ml VEGF in NIH3T3-conditioned media, overnight) | Effective concentration for cell migration inhibition, lower end (SKOV3 cells [4]) | Effective concentration for cell migration inhibition, upper end (SKOV3 cells [4]) | Effect of a 10-fold increase in peptide concentration on SKOV3 binding to HA (SKOV3 cells [5]; 1 vs 10 μM Å6) | Effect on SKOV3 binding to HA (SKOV3 cells [5]; immobilized HA, 1 or 10 μM Å6, 20 ng/ml IM7) | Effect on A2780 binding to HA (A2780 cells [6]) | Formation of higher molecular weight CD44 bands (dimers/oligomers) (CD44 [7]) | Effect on IM7 antibody binding to SKOV3 cells (CD44 on SKOV3 cells [8]) | Inhibition of lung metastasis (B16 melanoma cells) | Effect on binding of anti-CD44 to CD44 (band intensity) (CD44 [9]) |
| --- | --- | --- | --- | --- | --- | --- | --- | --- | --- | --- | --- | --- | --- |
| Ac-KPSSPPEE-Am (Ac-KPSSPPEE-NH2) [Å6] | targets CD44; also recorded: CD44 as the target | inhibits the binding of DF1485 anti-CD44 to SKOV3 cells | essentially unaffected | strong inhibition | 100 nM | 5 µM | little effect | enhanced | does not substantially modulate | higher molecular weight bands are formed | increase in antibody binding with increasing concentration | ≥ 50% | – |
| NASAPPEE | – | – | – | – | 1 nM | 100 µM | – | – | – | – | – | – | – |
| Å6CbioXL: SKOV3 cells incubated with 100 μM Å6Cbiotin and crosslinked with BS3; lysate polypeptides labeled with Å6Cbio (KPSSPPEE; also: biotin label (Cbio) at an unstated position, BS3 crosslinked to cell polypeptides) | – | – | – | – | – | – | – | – | – | – | – | – | reduces the binding of anti-CD44 to CD44 |
